Earlier results, collected in paper PMC6114101 (International Journal for Parasitology: Drugs and Drug …, 2018).

What was measured:
[1] = tested on: N. caninum; details: ref Ojo et al., 2014; Winzer et al., 2015; Müller et al., 2017a
[2] = ref Ojo et al., 2013
[3] = tested on: human ether-a-go-go-related gene (hERG) ion channel; details: ref Vidadala et al., 2016

excreted in urine [2]	SMILES	activity against N. caninum in vitro [1]	hERG inhibition [3]
1%	CCOc1ccc2cc(-c3nn(CC4CCN(C)CC4)c4ncnc(N)c34)ccc2c1 [BKI-1294]	effective	potent
–	CCOc1ccc2cc(-c3nn(C(C)(C)C)c(N)c3C(N)=O)cnc2c1 [BKI-1517]	effective	–
